Data: patent publication US9469615B2, “Quinoxalines and AZA-quinoxalines as CRTH2 receptor modulators” (Merck Sharp & Dohme Corp., priority 2010, dated 2016)

Target: T1, hCRTH2 (Homo sapiens, UniProt Q9Y5Y4)
T1 construct: expressed in transfected cells; host or cells: HEK (human embryonic kidney) cells expressing hCRTH2; membrane preparation
T1 sequence (Q9Y5Y4 1-395): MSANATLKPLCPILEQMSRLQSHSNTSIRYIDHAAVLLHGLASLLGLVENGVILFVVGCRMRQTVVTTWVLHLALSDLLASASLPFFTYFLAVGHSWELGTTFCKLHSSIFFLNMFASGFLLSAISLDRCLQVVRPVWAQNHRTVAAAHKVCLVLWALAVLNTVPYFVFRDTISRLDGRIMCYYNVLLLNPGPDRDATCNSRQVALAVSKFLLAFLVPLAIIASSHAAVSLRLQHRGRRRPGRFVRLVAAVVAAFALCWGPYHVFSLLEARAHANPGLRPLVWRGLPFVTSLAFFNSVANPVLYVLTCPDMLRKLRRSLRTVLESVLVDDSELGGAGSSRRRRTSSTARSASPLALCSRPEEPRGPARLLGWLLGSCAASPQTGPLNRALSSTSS
Test: Radioligand binding assay ([3H]PGD2 competition, HEK-hCRTH2 membranes)
Details: [3H]PGD2 binding, values in text
How it was run: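 HEK-hCRTH2 membranes, 8-20 μg; [3H]PGD2 3.0 nM; 50 mM Tris-HCl pH 7.4/1 mM EDTA/2 mM MnCl2; DMSO 1%; 60 min RT; NSB 10 μM PGD2; filtration, scintillation counting.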

Row | Ki | Compound
1 | 0.0184 µM | O=C(O)CCCCc1nc2cc(C(=O)N[C@H]3CCS(=O)(=O)c4ccccc43)ccc2nc1-c1ccc(F)cc1 [compound 709, (S)-5-(7-((1,1-dioxidothiochroman-4-yl)carbamoyl)-3-(4-fluorophenyl)quinoxalin-2-yl)pentanoic acid]

Same assay, conditions: [3H]PGD2 competition, Table B

Row | Compound | Ki
2 | O=C(O)CCCCc1nc2cc(C(=O)N3C[C@H]4C[C@@H]3CN4C(=O)OCc3ccccc3)ccc2nc1-c1ccc(Cl)cc1 [compound 699, 5-(7-((1R,4R)-5-((benzyloxy)carbonyl)-2,5-diazabicyclo[2.2.1]heptane-2-carbonyl)-3-(4-chlorophenyl)quinoxalin-2-yl)pentanoic acid] | 0.0021 to 0.02 µM
3 | Cc1nc(N2CCN(C(=O)c3ccc4nc(-c5ccc(Cl)cc5)c(CCCCC(=O)O)nc4c3)CC2)cn1C [compound 700, 5-(3-(4-chlorophenyl)-7-(4-(1,2-dimethyl-1H-imidazol-4-yl)piperazine-1-carbonyl)quinoxalin-2-yl)pentanoic acid] | 0.0201 to 0.2 µM
4 | O=C(O)CCCCc1nc2cc(C(=O)N3[C@@H]4CC[C@H]3CN(Cc3ccccc3)C4)ccc2nc1-c1ccc(Cl)cc1 [compound 702] | 0.0021 to 0.02 µM
5 | Cc1cc(N2CCN(C(=O)c3ccc4nc(-c5ccc(Cl)cc5)c(CCCCC(=O)O)nc4c3)CC2)cc(C)n1 [compound 703, 5-(3-(4-chlorophenyl)-7-(4-(2,6-dimethylpyridin-4-yl)piperazine-1-carbonyl)quinoxalin-2-yl)pentanoic acid] | 0.201 to 0.7 µM
6 | O=C(O)CCCCc1nc2cc(C(=O)N3C[C@H]4CC[C@@H](C3)N4Cc3ccccc3)ccc2nc1-c1ccc(Cl)cc1 [compound 704, 5-(7-((1R,5S)-8-benzyl-3,8-diazabicyclo[3.2.1]octane-3-carbonyl)-3-(4-chlorophenyl)quinoxalin-2-yl)pentanoic acid] | 0.0021 to 0.02 µM
7 | O=C(O)CCCCc1nc2cc(C(=O)N3CCn4ccnc4C3)ccc2nc1-c1ccc(Cl)cc1 [compound 705, 5-(3-(4-chlorophenyl)-7-(5,6,7,8-tetrahydroimidazo[1,2-a]pyrazine-7-carbonyl)quinoxalin-2-yl)pentanoic acid] | 0.201 to 0.7 µM
8 | O=C(N[C@@H]1CCCc2ccccc21)c1ccc2nc(-c3ccccc3)c(CCCC(O)C(=O)O)nc2c1 (stereo partly drawn) [compound 706, 2-hydroxy-5-(3-phenyl-7-(((R)-1,2,3,4-tetrahydronaphthalen-1-yl)carbamoyl)quinoxalin-2-yl)pentanoic acid] | 0.201 to 0.7 µM
9 | O=C(O)CCCCc1nc2cc(C(=O)N[C@H]3CC(=O)Nc4ccccc43)ccc2nc1-c1ccccc1 [compound 710, (S)-5-(7-((2-oxo-1,2,3,4-tetrahydroquinolin-4-yl)carbamoyl)-3-phenylquinoxalin-2-yl)pentanoic acid] | 0.0201 to 0.2 µM
10 | O=C(O)CCCCc1nc2cc(C(=O)N[C@H]3CC(=O)Nc4ccc(F)cc43)ccc2nc1-c1ccccc1 [compound 712, (S)-5-(7-((6-fluoro-2-oxo-1,2,3,4-tetrahydroquinolin-4-yl)carbamoyl)-3-phenylquinoxalin-2-yl)pentanoic acid] | 0.0201 to 0.2 µM
11 | O=C(O)CCCCc1nc2cc(C(=O)N[C@H]3CCS(=O)(=O)c4ccccc43)ccc2nc1-c1ccccc1 [compound 714, (S)-5-(7-((1,1-dioxidothiochroman-4-yl)carbamoyl)-3-phenylquinoxalin-2-yl)pentanoic acid] | 0.0201 to 0.2 µM
12 | O=C(O)CCCCc1nc2cc(C(=O)N[C@@H]3CCCc4ccccc43)c(F)cc2nc1-c1ccccc1 [compound 716, (R)-5-(6-fluoro-3-phenyl-7-((1,2,3,4-tetrahydro-naphthalen-1-yl)carbamoyl)quinoxalin-2-yl)pentanoic acid] | 0.0021 to 0.02 µM
13 | O=C(O)CCCCc1nc2cc(C(=O)N[C@@H]3CCCc4ccccc43)c(F)cc2nc1-c1ccc(F)cc1 [compound 717, (R)-5-(6-fluoro-3-(4-fluorophenyl)-7-((1,2,3,4-tetrahydronaphthalen-1-yl)carbamoyl)quinoxalin-2-yl)pentanoic acid] | 0.0021 to 0.02 µM
14 | O=C(O)CCCCc1nc2cc(C(=O)N[C@@H]3CCCc4ccccc43)c(F)cc2nc1-c1ccc(Cl)cc1 [compound 718, (R)-5-(3-(4-chlorophenyl)-6-fluoro-7-((1,2,3,4-tetrahydronaphthalen-1-yl)carbamoyl)quinoxalin-2-yl)pentanoic acid] | 0.0021 to 0.02 µM
15 | O=C(O)CCCCc1nc2cc(C(=O)N3C4C=C(c5ccccc5)CC3CC4)ccc2nc1-c1ccccc1 (stereo not shown) [compound 719, 5-(3-phenyl-7-(3-phenyl-8-azabicyclo[3.2.1]oct-2-ene-8-carbonyl)quinoxalin-2-yl)pentanoic acid] | 0.0021 to 0.02 µM
16 | O=C(O)CCCCc1nc2cc(C(=O)N[C@@H]3CCOc4cc(C(F)(F)F)ccc43)ccc2nc1-c1ccc(Cl)cc1 [compound 720, (R)-5-(3-(4-chlorophenyl)-7-((7-(trifluoromethyl)chroman-4-yl)carbamoyl)quinoxalin-2-yl)pentanoic acid] | 0.0021 to 0.02 µM
17 | CC1(C)CC[C@H](NC(=O)c2ccc3nc(-c4ccccc4)c(CCCCC(=O)O)nc3c2)c2ccccc21 [compound 721, (S)-5-(7-((4,4-dimethyl-1,2,3,4-tetrahydronaphthalen-1-yl)carbamoyl)-3-phenylquinoxalin-2-yl)pentanoic acid] | 0.0021 to 0.02 µM

Other lines, results leading:

Row | Ki | Compound
18 | 0.0021 to 0.02 µM | O=C(O)CCCCc1nc2cc(C(=O)NC3CC(=O)Nc4ccccc43)ccc2nc1-c1ccc(Cl)cc1 (stereo not shown) [compound 691, 5-(3-(4-chlorophenyl)-7-((2-oxo-1,2,3,4-tetrahydroquinolin-4-yl)carbamoyl)quinoxalin-2-yl)pentanoic acid]
19 | 0.0021 to 0.02 µM | O=C(O)CCCCc1nc2cc(C(=O)N[C@H]3CCOc4cc(C(F)(F)F)ccc43)ccc2nc1-c1ccc(Cl)cc1 [compound 692, (S)-5-(3-(4-chlorophenyl)-7-((7-(trifluoromethyl)chroman-4-yl)carbamoyl)quinoxalin-2-yl)pentanoic acid]
20 | 0.0021 to 0.02 µM | CC(C)(NC(=O)c1ccc2nc(-c3ccc(Cl)cc3)c(CCCCC(=O)O)nc2c1)c1ccc(F)cc1 [compound 693, 5-(3-(4-chlorophenyl)-7-((2-(4-fluorophenyl)propan-2-yl)carbamoyl)quinoxalin-2-yl)pentanoic acid]
21 | 0.0021 to 0.02 µM | O=C(O)CCCCc1nc2cc(C(=O)NC3CCOc4c(F)cc(F)cc43)ccc2nc1-c1ccc(Cl)cc1 (stereo not shown) [compound 694, 5-(3-(4-chlorophenyl)-7-((6,8-difluorochroman-4-yl)carbamoyl)quinoxalin-2-yl)pentanoic acid]
22 | 0.0021 to 0.02 µM | CN1C(=O)c2ccccc2C12CCN(C(=O)c1ccc3nc(-c4ccc(Cl)cc4)c(CCCCC(=O)O)nc3c1)CC2 [compound 695, 5-(3-(4-chlorophenyl)-7-(2-methyl-3-oxospiro[isoindoline-1,4′-piperidin]-1′-ylcarbonyl)quinoxalin-2-yl)pentanoic acid]
23 | 0.0021 to 0.02 µM | CC1(C)Oc2ccccc2C(NC(=O)c2ccc3nc(-c4ccc(Cl)cc4)c(CCCCC(=O)O)nc3c2)C1O (stereo not shown) [compound 696, 5-(3-(4-chlorophenyl)-7-((3-hydroxy-2,2-dimethylchroman-4-yl)carbamoyl)quinoxalin-2-yl)pentanoic acid]
24 | 0.0021 to 0.02 µM | CS(=O)(=O)c1ccccc1N1CCN(C(=O)c2ccc3nc(-c4ccc(Cl)cc4)c(CCCCC(=O)O)nc3c2)CC1 [compound 697, 5-(3-(4-chlorophenyl)-7-(4-(2-(methylsulfonyl)phenyl)piperazine-1-carbonyl)quinoxalin-2-yl)pentanoic acid]
25 | 0.0021 to 0.02 µM | O=C(O)CCCCc1nc2cc(C(=O)N3C[C@H]4CC[C@@H]3CN4Cc3ccccc3)ccc2nc1-c1ccc(Cl)cc1 [compound 698, 5-(7-((1R,4R)-5-benzyl-2,5-diazabicyc1o[2.2.2]octane-2-carbonyl)-3-(4-chlorophenyl)quinoxalin-2-yl)pentanoic acid]
26 | 0.0021 to 0.02 µM | O=C(O)CCCCc1nc2cc(C(=O)N3CCN(c4nc5ccccc5o4)CC3)ccc2nc1-c1ccc(Cl)cc1 [compound 701, 5-(7-(4-(benzo[d]oxazol-2-yl)piperazine-1-carbonyl)-3-(4-chlorophenyl)quinoxalin-2-yl)pentanoic acid]
27 | 0.0021 to 0.02 µM | CC1(C)CCC(NC(=O)c2ccc3nc(-c4ccccc4)c(CCCCC(=O)O)nc3c2)c2ccccc21 (stereo not shown) [compound 707, 5-(7-((4,4-dimethyl-1,2,3,4-tetrahydronaphthalen-1-yl)carbamoyl)-3-phenylquinoxalin-2-yl)pentatioic acid]
28 | 0.0021 to 0.02 µM | O=C(O)CCCCc1nc2cc(C(=O)N[C@H]3CCS(=O)(=O)c4ccccc43)ccc2nc1-c1ccc(F)cc1 [compound 709, (S)-5-(7-((1,1-dioxidothiochroman-4-yl)carbamoyl)-3-(4-fluorophenyl)quinoxalin-2-yl)pentanoic acid]
29 | 0.0021 to 0.02 µM | O=C(O)CCCCc1nc2cc(C(=O)N[C@@H]3CC(=O)Nc4ccccc43)ccc2nc1-c1ccccc1 [compound 711, (R)-5-(7-((2-oxo-1,2,3,4-tetrahydroquinolin-4-yl)carbamoyl)-3-phenylquinoxalin-2-yl)pentanoic acid]
30 | 0.0021 to 0.02 µM | O=C(O)CCCCc1nc2cc(C(=O)N[C@@H]3CC(=O)Nc4ccc(F)cc43)ccc2nc1-c1ccccc1 [compound 713, (R)-5-(7-((6-fluoro-2-oxo-1,2,3,4-tetrahydroquinolin-4-yl)carbamoyl)-3-phenylquinoxalin-2-yl)pentanoic acid]
31 | 0.0021 to 0.02 µM | O=C(O)CCCCc1nc2cc(C(=O)N[C@@H]3CCS(=O)(=O)c4ccccc43)ccc2nc1-c1ccccc1 [compound 715, (R)-5-(7-((1,1-dioxidothiochroman-4-yl)carbamoyl)-3-phenylquinoxalin-2-yl)pentanoic acid]
